Marks after values point to notes of the source that are not given here.
Tests used:
[1] = tested on: Mycobacterium Chelonae ATCC 35752; test: Sterilization test, Mycobacterium chelonae in sterile cups at room temperature (Example 1); assay type: cell-based; settings: EDC plus Sulfo-NHS, 20% isopropyl alcohol
Procedure: Porcine aortic roots are fixed by cross-linking according to the method described in U.S. Pat. No. 5,447,536. After fixation, the valves are stored in 10 mM HEPES, 0.85% NaCl, 20% isopropyl alcohol, pH 7.4, at 4° C. The sterility tests described in the following examples are in most cases conducted in the presence of bioprosthetic heart valve tissue; when such tissue is not present, the solutions are simply filtered through a 0.45 micron filter attached to a funnel (filter funnel). The filters are then rinsed with peptone water to eliminate residual chemicals on the membrane that may prevent growth of the organisms tested. Such membrane filters are then incubated on TSA plates at about 32° to 33° C., e.g. 32.5° C. When an aortic valve is inoculated with microorganisms for test purposes and then submitted to sterilization, the solution is filtered as described above. The aortic valve tissue is then washed for 20 minutes in a reciprocating shaker in the presence of peptone water containing Tween 80 in order to extract all indigenous spores or microorganisms from the tissue. This solution is filtered and then incubated as described above. […] Resistance to calcification is assessed by subdermal implantation of sterilized leaflets and aortic wall coupons in young rats, as also described in the '536 U.S. patent. […]

[2] = tested on: Chaetonium globosom ATCC 6205 spores; test: Sterilization in cups at about 38° C. (Example 6); assay type: cell-based, Chaetonium globosum; settings: 25 mM EDC, 20% isopropanol, inoculum Log 10 ˜4.7
Procedure: (§1) In view of the foregoing verification, it was decided to test the effectiveness of the sterilization process against other bacteria using sterile cups. Added to each of the cups is 20 ml of 10 mM HEPES, 0.85%, Nacl, 20% isopropanol, pH 6.5, containing 25 mM EDC without any coupling enhancer, before the cups are placed in a incubator at about 38° C. When the solution temperature reached about 38° C., approximately 10^5-10^6 organisms were inoculated into the solution. The tests were carried out in triplicate. The following four isolated were tested in the form of sporous suspensions: Clostridium sporogenes ATCC 3584, Bacillus pumilus ATCC 27142, Chaetonium globosom ATCC 6205, and Microacus cinereus ATCC 16594. The following three isolates were tested as vegetative cells: Mycobacterium chelonae ATCC 35752, Methylbacterium extorquens ATCC 43645 and Trichosporon aquatile ATCC 22310. The inoculated systems were allowed to incubate for 1 hour, for 5 hours or for 24 hours, and the solutions were then filtered through a 0.45 micron filter. After rinsing, the filter was placed on a TSA plate as described in Example 1. Negative and positive controls indicate that the tests were valid. The results are set forth in Table D which follows wherein the number of CFUs in the inoculum is expressed as its log to the base 10, e.g. 3.4×10^5=5.5: […]

[3] = tested on: Trichosporon aquatile ATCC 22310 vegetative cells; test: Sterilization in cups at about 38° C. (Example 6); assay type: cell-based; settings: 25 mM EDC, 20% isopropanol, inoculum Log 10 4.3
Procedure: as §1

[4] = tested on: Mycobacterium Chelonae ATCC 35752; test: Sterilization test, Mycobacterium chelonae in sterile cups at room temperature (Example 1); assay type: cell-based; parameters: key: (+) Indicates growth; (−) indicates no growth or complete kill; settings: 10 mM EDC+1 mM Sulfo-NHS, 20% isopropyl alcohol
Procedure: Porcine aortic roots are fixed by cross-linking according to the method described in U.S. Pat. No. 5,447,536. After fixation, the valves are stored in 10 mM HEPES, 0.85% NaCl, 20% isopropyl alcohol, pH 7.4, at 4° C. The sterility tests described in the following examples are in most cases conducted in the presence of bioprosthetic heart valve tissue; when such tissue is not present, the solutions are simply filtered through a 0.45 micron filter attached to a funnel (filter funnel). The filters are then rinsed with peptone water to eliminate residual chemicals on the membrane that may prevent growth of the organisms tested. Such membrane filters are then incubated on TSA plates at about 32° to 33° C., e.g. 32.5° C. When an aortic valve is inoculated with microorganisms for test purposes and then submitted to sterilization, the solution is filtered as described above. The aortic valve tissue is then washed for 20 minutes in a reciprocating shaker in the presence of peptone water containing Tween 80 in order to extract all indigenous spores or microorganisms from the tissue. This solution is filtered and then incubated as described above. All microbiological testing is performed in a biological laminar flow hood to prevent contamination. The shrinkage temperature and the proteolytic (collagenase and protease) degradation tests are conducted as previously described in the '536 patent. Resistance to calcification is assessed by subdermal implantation of sterilized leaflets and aortic wall coupons in young rats, as also described in the '536 U.S. patent.
Mycobacterium Chelonae ATCC 35752 (˜10^5) was inoculated in sterile cups. A 10 mM HEPES, 0.85% NaCl, pH 6.5 solution containing 10 mM EDC and 1 mM Sulfo-NHS in the presence or absence of 20% isopropyl alcohol was maintained in contact with the bacteria in the cups for various periods of time (treatment duration). The cups were maintained at room temperature, and the solutions were then filtered. The filters were then incubated at about 32-33° C. for up to 6 weeks (incubation duration) using either Trypticase Soy Agar (TSA) plates or Trypticase Soy Broth (TSB). All inoculations were done in duplicate.

CCN=C=NCCCN(C)C.Cl [EDC, 1-ethyl-3(3-dimethylaminopropyl)carbodiimide hydrochloride]
sterilization treatment time that kills all Mycobacterium chelonae [1]: ≤ 12 h
hours of incubation of plates after which no growth was observed ([2]; 5 Hours treatment): (72 hrs.)*
hours of incubation of plates after which no growth was observed ([2]; 24 Hours treatment): (96 hrs.)*
Log REDUCTION ([3]; 1 Hour): 4.3
Log REDUCTION ([3]; 5 Hours): 4.3
growth ([4]; treatment 0 hour, incubation 1 Day, TSA): −,−
growth ([4]; treatment 0 hour, incubation 1 Day, TSB): −,−
growth ([4]; treatment 0 hour, incubation 1 Week, TSA): −,−
growth ([4]; treatment 0 hour, incubation 1 Week, TSB): −,−
growth ([4]; treatment 12 hours, incubation 1 Day, TSA): −,−
growth ([4]; treatment 12 hours, incubation 1 Day, TSB): −,−
growth ([4]; treatment 12 hours, incubation 1 Week, TSA): −,−
growth ([4]; treatment 12 hours, incubation 1 Week, TSB): −,−
growth ([4]; treatment 12 hours, incubation 3 Week, TSA): −,−
growth ([4]; treatment 12 hours, incubation 3 Week, TSB): −,−
growth ([4]; treatment 12 hours, incubation 4 Week, TSA): −,−
growth ([4]; treatment 12 hours, incubation 4 Week, TSB): −,−
growth ([4]; treatment 12 hours, incubation 6 Week, TSA): −,−
growth ([4]; treatment 12 hours, incubation 6 Week, TSB): −,−
growth ([4]; treatment 24 hours, incubation 1 Day, TSA): −,−
growth ([4]; treatment 24 hours, incubation 1 Day, TSB): −,−
growth ([4]; treatment 24 hours, incubation 1 Week, TSA): −,−
growth ([4]; treatment 24 hours, incubation 1 Week, TSB): −,−
growth ([4]; treatment 24 hours, incubation 3 Week, TSA): −,−
growth ([4]; treatment 24 hours, incubation 3 Week, TSB): −,−
growth ([4]; treatment 24 hours, incubation 4 Week, TSA): −,−
growth ([4]; treatment 24 hours, incubation 4 Week, TSB): −,−
growth ([4]; treatment 24 hours, incubation 6 Week, TSA): −,−
growth ([4]; treatment 24 hours, incubation 6 Week, TSB): −,−
growth ([4]; treatment 48 hours, incubation 1 Day, TSA): −,−
growth ([4]; treatment 48 hours, incubation 1 Day, TSB): −,−
growth ([4]; treatment 48 hours, incubation 1 Week, TSA): −,−
growth ([4]; treatment 48 hours, incubation 1 Week, TSB): −,−
growth ([4]; treatment 48 hours, incubation 3 Week, TSA): −,−
growth ([4]; treatment 48 hours, incubation 3 Week, TSB): −,−
growth ([4]; treatment 48 hours, incubation 4 Week, TSA): −,−
growth ([4]; treatment 48 hours, incubation 4 Week, TSB): −,−
growth ([4]; treatment 48 hours, incubation 6 Week, TSA): −,−
growth ([4]; treatment 48 hours, incubation 6 Week, TSB): −,−
growth ([4]; treatment 72 hours, incubation 1 Day, TSA): −,−
growth ([4]; treatment 72 hours, incubation 1 Day, TSB): −,−
growth ([4]; treatment 72 hours, incubation 1 Week, TSA): −,−
growth ([4]; treatment 72 hours, incubation 1 Week, TSB): −,−
growth ([4]; treatment 72 hours, incubation 3 Week, TSA): −,−
growth ([4]; treatment 72 hours, incubation 3 Week, TSB): −,−
growth ([4]; treatment 72 hours, incubation 4 Week, TSA): −,−
growth ([4]; treatment 72 hours, incubation 4 Week, TSB): −,−
growth ([4]; treatment 72 hours, incubation 6 Week, TSA): −,−
growth ([4]; treatment 72 hours, incubation 6 Week, TSB): −,−

— patent publication US6506339B1, “Method of sterilization” (Biomedical Design, Inc., priority 1997, dated 2003)
